Experimental data published in PMC12064818, “A general assay platform to study protein pharmacology using ligand-dependent structural dynamics” (Nature Communications, 2025).
Counter-ions that a name gives are not always drawn. Like-named read-outs stand apart in the source and are kept apart here.

Key:
[1] = molecular target: PKA-N-HiBiT (Homo sapiens, UniProt P17612); assay: SDR assay, PKA-N-HiBiT; settings: for SDR Ave Max Response: average maximal response
[2] = molecular target: T1, ABL1-N-HiBiT kinase domain (Homo sapiens, UniProt P00519); assay: SDR assay, ABL1-N-HiBiT
T1 sequence (P00519 233-500): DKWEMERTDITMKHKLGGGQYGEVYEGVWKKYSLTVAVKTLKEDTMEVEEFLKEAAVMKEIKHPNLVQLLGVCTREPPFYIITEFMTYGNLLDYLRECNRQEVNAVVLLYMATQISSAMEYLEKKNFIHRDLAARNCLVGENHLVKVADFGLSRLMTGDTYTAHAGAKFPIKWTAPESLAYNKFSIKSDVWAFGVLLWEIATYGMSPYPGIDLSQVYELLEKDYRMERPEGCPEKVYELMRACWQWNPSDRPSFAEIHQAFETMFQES

[3] = test system: PKA; settings: annotation yes/no for kinase library compound; source not given; cited from earlier work
[4] = molecular target: FLuc-N-HiBiT (firefly luciferase) (Photinus pyralis, UniProt P08659, form not given/L550V); assay: SDR assay, FLuc-N-HiBiT; settings: ATP-independent pyrazolo pyrimidine (clade P)
[5] = heatmap data, 128 kinase inhibitors
[6] = ABL1-N-HiBiT qHTS, average maximal SDR response
[7] = read-out: SDR Ave SDR50, ABL1-N-HiBiT qHTS, average, unit inferred
[8] = ABL1-N-HiBiT qHTS, SDR assay, average maximal response
[9] = read-out: SDR Ave SDR50, ABL1-N-HiBiT qHTS, SDR assay, average
[10] = read-out: PKA SDR Ave SDR50, PKA-N-HiBiT qHTS, SDR assay, average

Sequence of FLuc-N-HiBiT (firefly luciferase) (P08659 2-550 L550V, form open): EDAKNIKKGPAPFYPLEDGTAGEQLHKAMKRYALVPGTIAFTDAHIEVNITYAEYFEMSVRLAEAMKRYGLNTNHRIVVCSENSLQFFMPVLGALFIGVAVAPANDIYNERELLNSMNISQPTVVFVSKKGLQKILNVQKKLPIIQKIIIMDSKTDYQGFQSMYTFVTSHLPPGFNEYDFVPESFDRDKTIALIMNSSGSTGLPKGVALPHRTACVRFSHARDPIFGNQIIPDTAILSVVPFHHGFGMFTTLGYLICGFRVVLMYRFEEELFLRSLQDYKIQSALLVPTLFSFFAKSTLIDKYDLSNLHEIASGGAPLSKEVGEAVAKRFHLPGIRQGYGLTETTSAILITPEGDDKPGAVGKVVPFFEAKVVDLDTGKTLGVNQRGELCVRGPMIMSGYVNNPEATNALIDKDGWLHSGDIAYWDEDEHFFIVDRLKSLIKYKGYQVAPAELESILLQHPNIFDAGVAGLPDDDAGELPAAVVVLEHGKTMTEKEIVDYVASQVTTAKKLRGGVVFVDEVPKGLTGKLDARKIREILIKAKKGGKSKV

| SDR Ave Max Response ([1]; PKA-N-HiBiT qHTS, SDR assay) | SDR Ave Max Response [2, 6] | Compound | Annotated PKA activity [3] | further results |
| --- | --- | --- | --- | --- |
| -13.81 | 59.57 | O=C(c1cccc(Cl)c1F)N1CCN(Cc2cccc(Nc3nccs3)n2)CC1 [MK-8745] | no | ABL1 SDR pSDR50 [2, 5]: 5.27; EC50 [2, 7]: 5.74 µM |
| 1.60 | -4.31 | O=C(Nc1cc(C(F)(F)F)ccc1N1CCCCC1)c1ccncc1 [SRPIN340] | no | – |
| 10.58 | 21.22 | C[C@@H]1CCNC(=O)c2cc3ccc(C(=O)Nc4nc5ccccc5n4CCCN(C)C)cc3n21 [BIX-02565] | no | – |
| 6.35 | – | UK-371804 | no | ABL1 SDR pSDR50 [2, 5]: 4.69; SDR Ave Max Response [2, 8]: -28.31; EC50 [2, 9]: 26.5 µM |
| -11.95 | -23.39 | CaMKII-IN-1 | no | ABL1 SDR pSDR50 [2, 5]: 4.38 |
| 10.49 | – | Cn1ncc(NC(=O)c2nc(-c3c(F)cccc3F)sc2N)c1N1CC[C@@H](N)[C@H](F)CC1 [GDC-0339] | no | SDR Ave Max Response [2, 8]: 12.78 |
| 63.28 | -4.45 | NC1(C(=O)N[C@@H](CCO)c2ccc(Cl)cc2)CCN(c2nc[nH]c3nccc2-3)CC1 [AZD-5363] | yes | – |
| 1.50 | -0.63 | STF-083010 | no | – |
| 11.43 | 60.77 | CNC(=O)c1ccccc1Nc1nc(Nc2ccc(N3CCOCC3)cc2OC)ncc1Cl [NVP-TAE226] | no | – |
| 1.84 | 10.90 | CCNC(=O)Nc1ccc(-c2nc3c(c(N4CCOC[C@@H]4C)n2)CCN(c2ncccn2)C3)cc1 [mTOR-IN-1] | no | – |
| 3.65 | – | Cc1sc2c(c1C)C(c1ccc(Cl)cc1)=N[C@@H](CC(=O)Nc1ccc(OCCOCCOCCOCCNc3cccc4c3C(=O)N(C3CCC(=O)NC3=O)C4=O)cc1)c1nnc(C)n1-2 (stereo partly shown) [ARV-825] | no | SDR Ave Max Response [2, 8]: 5.73 |
| -3.80 | 7.50 | Cc1cccc(/C=N/Nc2cc(N3CCOCC3)nc(OCCc3ccccn3)n2)c1 [Apilimod] | no | – |
| 2.85 | -18.17 | Cc1ccccc1-n1c([C@H](C)Nc2nc(N)nc3[nH]cnc23)nc2cccc(C)c2c1=O [CAL-130 Hydrochloride] | no | SDR Ave pSDR50 ([2]; ABL1-N-HiBiT qHTS, average): 5.40; EC50 [2, 7]: 4.04 µM |
| – | – | O=c1cc(N2CCOCC2)nc2c3ccccc3ccn12 [Compound 401] | no | Emax ([1]; read-out: SDR Ave Max Response): 0.18%; EC50 ([2]; ABL1 SDR pSDR50, ABL1, SDR, heatmap data, 128 kinase inhibitors): 7.41 µM; EC50 ([2]; SDR Ave SDR50, ABL1-N-HiBiT qHTS, average, unit inferred): 7.6 µM; Emax ([2]; read-out: SDR Ave Max Response): 22.9%; pSDR50 (clade P) [4]: 4.78; % Activity (max response) ([4]; SDR): 29.04% |
| 1.65 | – | O=C(NCCCNc1nc(Nc2ccc(N3CCOCC3)cc2)ncc1C1CC1)C1CCC1 [MRT-68601 HCl] | no | SDR Ave Max Response [2, 8]: -7.81 |
| 5.33 | 37.18 | PLX-4720 | no | ABL1 SDR pSDR50 [2, 5]: 4.63; EC50 [2, 7]: 24.5 µM |
| 2.68 | 10.66 | COc1ccc(-n2c(C)c([N+](=O)[O-])c3ccc(O)cc32)cc1 [ID-8] | no | – |
| -13.01 | -2.59 | O=C1CCC(N2C(=O)c3ccccc3C2=O)C(=O)N1 (stereo not shown) [Thalidomide] | no | – |

| Compound | SDR Ave Max Response ([1]; PKA-N-HiBiT qHTS, SDR assay) | SDR Ave Max Response [2, 6] | Annotated PKA activity [3] | further results |
| --- | --- | --- | --- | --- |
| COC(=O)Nc1ccc(-c2nc(N3CCOCC3)c3cnn(C4CCN(C(=O)OC)CC4)c3n2)cc1 [WYE-354] | 4.88 | 1.70 | no | – |
| CC1(C)OCCn2c1nc1c(N3CCOCC3)nc(-c3cnc(N)nc3)nc12 [GDC-0084] | 3.97 | – | no | ABL1 SDR pSDR50 [2, 5]: 5.16; SDR Ave Max Response [2, 8]: 58.32; EC50 [2, 9]: 7.07 µM |
| CO[C@H]1/C=C/O[C@@]2(C)Oc3c(C)c(O)c4c(O)c(c(/C=N\N5CCN(C6CCCC6)CC5)c(O)c4c3C2=O)NC(=O)C(C)=C/C=C/[C@H](C)[C@H](O)[C@@H](C)[C@@H](O)[C@@H](C)[C@H](OC(C)=O)[C@@H]1C [Rifapentin] | -45.77 | -34.67 | no | EC50 [1, 10]: 17.1 µM; ABL1 SDR pSDR50 [2, 5]: 4.28 |
| Cc1n[nH]c2ncc(C(=O)N3CCC[C@H]3c3ccc(Cl)cc3)cc12 [MSC2530818] | 40.05 | – | no | EC50 [1]: 14.1 µM; EC50 [1, 10]: 14.5 µM; SDR Ave Max Response [2, 8]: 4.30 |
| Cc1[nH]c2ccccc2c1C1=C(NCCc2ccc(F)cc2)C(=O)N(C)C1=O [IM-12] | -30.07 | -12.41 | no | EC50 [1]: 32.4 µM; EC50 [1, 10]: 41.4 µM |
| Cc1ncc(NC(=O)c2ccc(CN3CCN(C)CC3)c(C(F)(F)F)c2)cc1Nc1nccc(-c2cccnc2)n1 [Flumatinib] | 7.84 | 74.04 | no | – |
| CC(C)CCN1c2nc(Nc3cc(F)c(O)c(F)c3)ncc2N(C)C(=O)C1C (stereo not shown) [BI-D1870] | -9.75 | – | no | ABL1 SDR pSDR50 [2, 5]: 5.36; SDR Ave Max Response [2, 8]: -47.47; EC50 [2, 9]: 4.72 µM |
| COc1ccc(CNC(=O)Nc2ncc([N+](=O)[O-])s2)cc1 [AR-A014418] | -0.25 | -7.75 | no | – |
| CCn1nc(C2CCN(C(=O)CCO)CC2)nc1-c1cnc(N)c(-c2nnc(C(C)(C)C)o2)n1 [AZD-8835] | 6.01 | – | no | ABL1 SDR pSDR50 [2, 5]: 4.80; SDR Ave Max Response [2, 8]: 63.43; EC50 [2, 9]: 17.6 µM |
